Measurements taken from PubChem BioAssay AID248 (DTP/NCI, 2004).
Several values for one entry are separate records, joined by “and”; a condition that tells them apart may be missing. Equal entries are not always repeated. Inconclusive results and toxic doses are left out. No stated cut-off is given here; in the data, active means T/C of 150% or more; inactive means T/C below 125%.

System: L1210 leukemia ip in BDF1 mice, survival T/C
Experiment: NCI In Vivo Anticancer Drug Screen. Data for tumor model L1210 Leukemia (intraperitoneal) in B6D2F1 (BDF1) mice
Details: endpoint: mean survival time, higher = longer survival
Procedure, shortened: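 Ratio derived from survival: compound-dosed mice over vehicle-dosed mice, all bearing a transplantable tumor.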

[1] = dose: 50.0 mg/kg/injection, schedule: Q01DX001 (ip), vehicle: saline
[2] = dose: 100.0 mg/kg/injection, schedule: Q01DX001 (ip), vehicle: saline
[3] = dose: 200.0 mg/kg/injection, schedule: Q01DX001 (ip), vehicle: saline
[4] = dose: 100.0 mg/kg/injection, schedule: Q04DX002 (ip), vehicle: Klucel (hydroxypropylcellulose) (HPC)
[5] = dose: 100.0 mg/kg/injection, schedule: Q04DX002 (ip), vehicle: saline
[6] = dose: 200.0 mg/kg/injection, schedule: Q04DX002 (ip), vehicle: Klucel (hydroxypropylcellulose) (HPC)
[7] = dose: 400.0 mg/kg/injection, schedule: Q01DX001 (ip), vehicle: saline
[8] = dose: 200.0 mg/kg/injection, schedule: Q04DX002 (ip), vehicle: saline with Tween-80
[9] = dose: 100.0 mg/kg/injection, schedule: Q01DX001 (ip), vehicle: saline with Tween-80
[10] = dose: 200.0 mg/kg/injection, schedule: Q01DX001 (ip), vehicle: saline with Tween-80
[11] = dose: 400.0 mg/kg/injection, schedule: Q01DX001 (ip), vehicle: saline with Tween-80

Measured: T/C

CCC(NCC(C)C)NCC(C)C
inactive: dose: 12.5 mg/kg/injection, schedule: Q04DX003 (ip), vehicle: saline 91 % of control | dose: 25.0 mg/kg/injection, schedule: Q04DX003 (ip), vehicle: saline 105 % of control | dose: 50.0 mg/kg/injection, schedule: Q04DX003 (ip), vehicle: saline 86 % of control

C[N+](C)(C)CCOc1ccc([N+](=O)[O-])cc1
inactive: [1] 95 % of control | [2] 104 % of control | [3] 92 % of control

O=S(=O)(CCl)Nc1ccncc1
inactive: dose: 100.0 mg/kg/injection, schedule: Q04DX013 (ip), vehicle: carboxymethylcellulose (CMC) 101 % of control | dose: 200.0 mg/kg/injection, schedule: Q04DX013 (ip), vehicle: carboxymethylcellulose (CMC) 100 % of control | dose: 400.0 mg/kg/injection, schedule: Q04DX013 (ip), vehicle: carboxymethylcellulose (CMC) 100 % of control

CN(C)C(=S)SCCC(=O)O
inactive: [4] 94 % of control | [5] 103 % of control | [6] 88 % of control | dose: 200.0 mg/kg/injection, schedule: Q04DX002 (ip), vehicle: saline 100 % of control | dose: 400.0 mg/kg/injection, schedule: Q04DX002 (ip), vehicle: saline 100 % of control

c1cc2c(c3c1CC1c4cc5c(cc4CCN1C3)OCO5)OCO2 (stereo unspecified)
inactive: [2] 86 % of control

CCCCCCCCCCCCCCOc1ccc2ccccc2c1
inactive: dose: 100.0 mg/kg/injection, schedule: Q04DX003 (ip), vehicle: Klucel (hydroxypropylcellulose) (HPC) 94 % of control | dose: 200.0 mg/kg/injection, schedule: Q04DX003 (ip), vehicle: Klucel (hydroxypropylcellulose) (HPC) 96 % of control | dose: 400.0 mg/kg/injection, schedule: Q04DX003 (ip), vehicle: Klucel (hydroxypropylcellulose) (HPC) 91 % of control

CCOC(=O)C1/C(=N\N=C2\c3c(nnp3N(CCOS(C)(=O)=O)CCOS(C)(=O)=O)C(C(=O)OCC)C(c3ccc(OC(C)=O)cc3)C2C(=O)OCC)c2c(nnp2N(CCOS(C)(=O)=O)CCOS(C)(=O)=O)C(C(=O)OCC)C1c1ccc(OC(C)=O)cc1 (stereo unspecified)
inactive: [1] 103 % of control | [2] 109 % of control | [3] 109 % of control | [7] 107 % of control

c1ccc([C](c2ccccc2)(c2ccccc2)[Ge]([c]2ccccc2)([c]2ccccc2)[c]2ccccc2)cc1
inactive: dose: 12.8 mg/kg/injection, schedule: Q04DX002 (ip), vehicle: saline with Tween-80 93 % of control | dose: 32.0 mg/kg/injection, schedule: Q04DX002 (ip), vehicle: saline with Tween-80 96 % of control | dose: 80.0 mg/kg/injection, schedule: Q04DX002 (ip), vehicle: saline with Tween-80 89 % of control | [8] 89 % of control

CCCC(=O)NC1CC(OC2CC(O)(C(C)=O)Cc3c(O)c4c(c(O)c32)C(=O)c2c(OC)cccc2C4=O)OC(C)C1O (stereo unspecified)
inactive: dose: 0.25 mg/kg/injection, schedule: Q01DX009 (ip), vehicle: saline 91 % of control | dose: 0.5 mg/kg/injection, schedule: Q01DX009 (ip), vehicle: saline 96 % of control | dose: 1.0 mg/kg/injection, schedule: Q01DX009 (ip), vehicle: saline 91 % of control | dose: 2.0 mg/kg/injection, schedule: Q01DX009 (ip), vehicle: saline 93 % of control | dose: 4.0 mg/kg/injection, schedule: Q01DX009 (ip), vehicle: saline 96 % of control

CCCCCCCCCOCC(O)COc1ccccc1[N+](=O)[O-] (stereo unspecified)
inactive: dose: 100.0 mg/kg/injection, schedule: Q04DX003 (ip), vehicle: saline sonified 113 % of control | dose: 200.0 mg/kg/injection, schedule: Q04DX003 (ip), vehicle: saline sonified 95 % of control | dose: 400.0 mg/kg/injection, schedule: Q04DX003 (ip), vehicle: saline sonified 98 % of control

N#Cc1ccc(CC(=O)c2ccccc2)cc1
inactive: [1] 101 % of control | [2] 97 % of control | [3] 101 % of control | [7] 95 % of control

CCCCN(CCCC)CC(O)c1ccnc2cc3c(cc12)OCO3 (stereo unspecified)
inactive: dose: 25.0 mg/kg/injection, schedule: Q01DX009 (ip), vehicle: other 102 % of control | dose: 50.0 mg/kg/injection, schedule: Q01DX009 (ip), vehicle: other 110 % of control | [2] 97 % of control | dose: 100.0 mg/kg/injection, schedule: Q01DX009 (ip), vehicle: other 111 % of control

CCN=C(c1ccc(NC(=O)c2ccc(C(=O)Nc3ccc(C(=NCC)N(CC)CC)cc3)c(Cl)c2)cc1)N(CC)CC
inactive: dose: 0.94 mg/kg/injection, schedule: Q01DX Z (ip), vehicle: carboxymethylcellulose (CMC) 94 % of control

c1cc(CCCc2ccncc2)ccn1
inactive: dose: 25.0 mg/kg/injection, schedule: Q04DX002 (ip), vehicle: saline 108 % of control | dose: 50.0 mg/kg/injection, schedule: Q04DX002 (ip), vehicle: saline 95 % of control | [5] 95 % of control

CCc1ccc(N)cc1
inactive: dose: 10.0 mg/kg/injection, schedule: Q01DX001 (ip), vehicle: saline 102 % of control | dose: 20.0 mg/kg/injection, schedule: Q01DX001 (ip), vehicle: saline 102 % of control | dose: 40.0 mg/kg/injection, schedule: Q01DX001 (ip), vehicle: saline 111 % of control

CN1C2CCC1CC(OC1c3ccccc3CCc3ccccc31)C2 (stereo unspecified)
inactive: dose: 6.25 mg/kg/injection, schedule: Q01DX009 (ip), vehicle: saline 105 % of control | dose: 12.5 mg/kg/injection, schedule: Q01DX009 (ip), vehicle: saline 104 % of control | dose: 25.0 mg/kg/injection, schedule: Q01DX009 (ip), vehicle: saline 101 % of control | dose: 50.0 mg/kg/injection, schedule: Q01DX009 (ip), vehicle: saline 101 % of control

ClC12c3ccccc3C(c3ccccc31)C1(Cl)c3ccccc3C2c2ccccc21
inactive: [4] 102 % of control | [6] 109 % of control | dose: 400.0 mg/kg/injection, schedule: Q04DX002 (ip), vehicle: Klucel (hydroxypropylcellulose) (HPC) 106 % of control

O=C(O)C(Br)CBr (stereo unspecified)
inactive: [2] 90 % of control

O=C(NC(=S)Nc1cccc2ccc(O)cc12)c1ccc(Cl)cc1Cl
inactive: [9] 101 % of control | dose: 100.0 mg/kg/injection, schedule: Q01DX009 (ip), vehicle: saline with Tween-80 94 % of control and 106 % of control | dose: 100.0 mg/kg/injection, schedule: Q04DX002 (ip), vehicle: saline with Tween-80 103 % of control and 92 % of control | dose: 100.0 mg/kg/injection, schedule: Q04DX003 (ip), vehicle: saline with Tween-80 100 % of control | [10] 92 % of control | dose: 200.0 mg/kg/injection, schedule: Q01DX009 (ip), vehicle: saline with Tween-80 98 % of control and 101 % of control | [8] 95 % of control and 103 % of control | dose: 200.0 mg/kg/injection, schedule: Q04DX003 (ip), vehicle: saline with Tween-80 97 % of control | [11] 103 % of control | dose: 400.0 mg/kg/injection, schedule: Q01DX009 (ip), vehicle: saline with Tween-80 103 % of control and 108 % of control | dose: 400.0 mg/kg/injection, schedule: Q04DX002 (ip), vehicle: saline with Tween-80 97 % of control and 98 % of control | dose: 400.0 mg/kg/injection, schedule: Q04DX003 (ip), vehicle: saline with Tween-80 92 % of control

CC(C)(CCCC(C)(C)[N+](=O)[O-])[N+](=O)[O-]
inactive: [9] 101 % of control | [10] 94 % of control | [11] 101 % of control

CCOC(=O)C(C(=O)OCC)C(C)(C)c1ccccc1
inactive: dose: 100.0 mg/kg/injection, schedule: Q01DX009 (ip), vehicle: saline 104 % of control | dose: 200.0 mg/kg/injection, schedule: Q01DX009 (ip), vehicle: saline 103 % of control | dose: 400.0 mg/kg/injection, schedule: Q01DX009 (ip), vehicle: saline 101 % of control

O=[N+]([O-])/C=C/c1ccc(Br)cc1
inactive: dose: 75.0 mg/kg/injection, schedule: Q01DX001 (ip), vehicle: saline 95 % of control
